From the NIST ThermoML archive (doi:10.1021/je101131x)
± gives the expanded uncertainty stated by the source.

Details: Liquid

CCCOC(C)=O [propyl ethanoate]
vapor or sublimation pressure (323.15 K): 16.09 ± 0.61 kPa | vapor or sublimation pressure (333.15 K): 24.01 ± 0.8 kPa | vapor or sublimation pressure (343.15 K): 34.99 ± 1.1 kPa | vapor or sublimation pressure (353.15 K): 49.92 ± 1.4 kPa

CC(=O)O [acetic acid]
vapor or sublimation pressure (323.15 K): 7.567 ± 0.41 kPa | vapor or sublimation pressure (333.15 K): 12.04 ± 0.51 kPa | vapor or sublimation pressure (343.15 K): 18.66 ± 0.67 kPa | vapor or sublimation pressure (353.15 K): 28.2 ± 0.89 kPa
